# Experimental data taken from article PMC4362760, “JAK2^V617F Drives Mcl-1 Expression and Sensitizes Hematologic Cell Lines to Dual Inhibition of JAK2 and Bcl-xL” (PLoS ONE, 2015).
# Experiments:
# [1] = test system: Caspase-3/7; assay: Caspase-GLO 3/7 Assay, Caspase-3/7 activity divided by cell viability, fold of control; type: cell-based; conditions: for caspase-3 activity, single agent: JAKi-I or ABT-263 alone
# [2] = target: PKCzeta (Homo sapiens, UniProt Q05513); assay: TR-FRET Kinome PKCzeta; type: binding; conditions: PKCzeta Millipore IVGN Tracer .05(Subs Conc)
# Source text: (§1) (XLS) Click here for additional data file.
# [3] = target: CDK11; assay: TR-FRET Kinome CDK11; type: binding, human; conditions: CDK11 Abbott .025(Subs Conc)
# Source text: as §1
# [4] = target: AMPK; assay: TR-FRET Kinome AMPK; type: binding, human; conditions: AMPK Invitrogen .1(Subs Conc)
# Source text: as §1
# [5] = target: PKG1A (Homo sapiens, UniProt Q13976); assay: TR-FRET Kinome PKG1A; type: binding; conditions: PKG1A Millipore .05(Subs Conc)
# Source text: as §1
# [6] = target: Pim2 (Homo sapiens, UniProt Q9P1W9); assay: TR-FRET Kinome Pim2; type: binding; conditions: Pim2 Millipore .025(Subs Conc)
# Source text: as §1
# [7] = target: MAP2K3 (Homo sapiens, UniProt P46734); assay: TR-FRET Kinome MAP2K3; type: binding; conditions: MAP2K3 Invitrogen .075(Subs Conc)
# Source text: as §1
# [8] = test system: Bim binding to Bcl-XL; assay: Bim immunoblot of lysates and Bcl-XL immunoprecipitates; type: cell-based
# Protocol: For immunoprecipitation, lysates were prepared in CHAPS lysis buffer and 2 mg of cell lysate was mixed with at least 8 μg of immunoprecipitating antibody overnight at 4°C. The following day, 30 μl of a Protein A- or Protein G-agarose slurry was added for an additional 2 hr. Immunoprecipitates were washed three times in CHAPS lysis buffer, and heated in 1.5x loading buffer at 95°C for 5 min.
# (§2) Caspase-3 activity was determined at each time point. Data are from duplicate samples and are representative of at least three independent experiments. (D-G) Cells were treated in combination as indicated, and cell viability was determined after 72 hr. Data are means of duplicate determinations, and are representative of at least three independent experiments. […] Drugs were added simultaneously, and cell viability was determined after 72 hr. The data were then analyzed using the drug-drug interaction model of Bliss additivity^16 to define dose combinations that were synergistic (values >15; red), antagonistic (values <-15; blue), or without effect (-15<values<15; gray). (I) Model of JAK2/Bcl-2 family inhibitor synergy. JAK2^V617F constitutively phosphorylates and activates STAT3/5, thus enforcing expression of the transcriptional target, Mcl-1. Mcl-1 collaborates with Bcl-XL to oppose apoptosis and support viability.
# [9] = target: Plk3 (Homo sapiens, UniProt Q9H4B4); assay: TR-FRET Kinome Plk3; type: binding; conditions: Plk3 Invitrogen .05(Subs Conc)
# Source text: as §1
# [10] = test system: K562 cells; assay: Cell viability of K562 cells after siRNA transfection and 72 hr ABT-263; type: cell-based
# Protocol: Transfection of siRNAs was performed using Lipofectamine RNAiMAX according to the manufacturer’s recommendations. […] Caspase-3 activity was determined using the Caspase-GLO 3/7 Assay (Promega) in parallel with the CellTiter-GLO viability assay (Promega). The data are expressed as Caspase-3/7 activity divided by cell viability. […]
# Data are means of duplicate samples and are representative of two independent experiments. (XLS) Click here for additional data file.
# [11] = test system: HEL cells; assay: alamarBlue cell viability, JAKi-I/ABT-263 combination, 72 hr, HEL; type: cell-based; conditions: Jaki-1 0 uM
# Protocol: (§3) Transfection of siRNAs was performed using Lipofectamine RNAiMAX according to the manufacturer’s recommendations. […] Caspase-3 activity was determined using the Caspase-GLO 3/7 Assay (Promega) in parallel with the CellTiter-GLO viability assay (Promega). The data are expressed as Caspase-3/7 activity divided by cell viability.
# as §2
# Supplementary file pone.0114363.s006.xls: S6 Dataset Cells were treated in combination as indicated, and cell viability was determined using alamarBlue after 72 hr. Data are means of duplicate determinations, and are representative of at least three independent experiments. (XLS) Click here for additional data file.
# [12] = test system: JAK2 V617F-positive and -negative leukemia cell lines; assay: Drug-drug interaction across leukemia lines: ABT-263 dose shift and Bliss additivity matrix, 72-hr cell viability; type: cell-based; conditions: JAKi-I and ABT-263 0.03-1 μM matrix, 72-hr viability, cell lines carrying JAK2 V617F
# Protocol: as §3, §2
# Chain of Plk3 (Q9H4B4 whole entry): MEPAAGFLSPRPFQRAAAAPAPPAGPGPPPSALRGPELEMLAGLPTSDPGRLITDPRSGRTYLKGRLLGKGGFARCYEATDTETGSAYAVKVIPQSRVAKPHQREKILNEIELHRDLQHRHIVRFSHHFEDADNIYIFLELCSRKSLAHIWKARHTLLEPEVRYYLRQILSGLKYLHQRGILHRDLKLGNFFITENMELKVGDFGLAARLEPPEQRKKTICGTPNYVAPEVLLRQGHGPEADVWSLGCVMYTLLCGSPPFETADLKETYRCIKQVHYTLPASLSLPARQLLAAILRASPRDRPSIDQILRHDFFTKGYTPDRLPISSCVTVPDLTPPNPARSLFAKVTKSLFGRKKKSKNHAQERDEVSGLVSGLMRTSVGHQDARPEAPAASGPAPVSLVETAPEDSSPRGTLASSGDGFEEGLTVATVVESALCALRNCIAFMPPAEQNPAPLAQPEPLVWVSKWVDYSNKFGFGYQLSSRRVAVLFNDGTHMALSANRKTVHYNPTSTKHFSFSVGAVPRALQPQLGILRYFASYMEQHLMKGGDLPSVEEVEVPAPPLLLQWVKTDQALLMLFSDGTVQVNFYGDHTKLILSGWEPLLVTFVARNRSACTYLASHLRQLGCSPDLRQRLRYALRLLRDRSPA
# Chain of Pim2 (Q9P1W9 whole entry): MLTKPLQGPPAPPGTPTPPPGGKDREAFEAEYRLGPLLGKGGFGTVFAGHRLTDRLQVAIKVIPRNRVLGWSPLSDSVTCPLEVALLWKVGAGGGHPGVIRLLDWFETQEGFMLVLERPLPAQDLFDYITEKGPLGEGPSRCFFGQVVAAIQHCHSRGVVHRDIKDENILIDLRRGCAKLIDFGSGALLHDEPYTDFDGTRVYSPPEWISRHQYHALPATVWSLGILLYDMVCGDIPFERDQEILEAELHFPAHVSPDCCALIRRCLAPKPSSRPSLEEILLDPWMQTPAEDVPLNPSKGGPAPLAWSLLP
# Chain of PKCzeta (Q05513 whole entry): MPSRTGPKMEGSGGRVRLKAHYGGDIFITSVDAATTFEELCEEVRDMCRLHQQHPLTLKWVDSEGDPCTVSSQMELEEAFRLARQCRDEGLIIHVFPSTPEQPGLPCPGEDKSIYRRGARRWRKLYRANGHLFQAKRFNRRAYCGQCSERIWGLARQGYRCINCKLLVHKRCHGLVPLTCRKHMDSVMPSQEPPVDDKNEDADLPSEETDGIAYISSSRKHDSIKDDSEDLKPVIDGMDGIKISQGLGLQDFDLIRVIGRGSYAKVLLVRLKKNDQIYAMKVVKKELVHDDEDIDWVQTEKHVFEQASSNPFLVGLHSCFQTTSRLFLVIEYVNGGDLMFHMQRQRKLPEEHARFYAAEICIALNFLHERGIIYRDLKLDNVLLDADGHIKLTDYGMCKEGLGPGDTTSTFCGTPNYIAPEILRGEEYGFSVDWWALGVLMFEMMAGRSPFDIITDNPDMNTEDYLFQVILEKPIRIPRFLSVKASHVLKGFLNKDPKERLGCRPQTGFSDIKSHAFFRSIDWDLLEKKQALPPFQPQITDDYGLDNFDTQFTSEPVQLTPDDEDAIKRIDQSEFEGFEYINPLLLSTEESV
# Chain of PKG1A (Q13976 whole entry): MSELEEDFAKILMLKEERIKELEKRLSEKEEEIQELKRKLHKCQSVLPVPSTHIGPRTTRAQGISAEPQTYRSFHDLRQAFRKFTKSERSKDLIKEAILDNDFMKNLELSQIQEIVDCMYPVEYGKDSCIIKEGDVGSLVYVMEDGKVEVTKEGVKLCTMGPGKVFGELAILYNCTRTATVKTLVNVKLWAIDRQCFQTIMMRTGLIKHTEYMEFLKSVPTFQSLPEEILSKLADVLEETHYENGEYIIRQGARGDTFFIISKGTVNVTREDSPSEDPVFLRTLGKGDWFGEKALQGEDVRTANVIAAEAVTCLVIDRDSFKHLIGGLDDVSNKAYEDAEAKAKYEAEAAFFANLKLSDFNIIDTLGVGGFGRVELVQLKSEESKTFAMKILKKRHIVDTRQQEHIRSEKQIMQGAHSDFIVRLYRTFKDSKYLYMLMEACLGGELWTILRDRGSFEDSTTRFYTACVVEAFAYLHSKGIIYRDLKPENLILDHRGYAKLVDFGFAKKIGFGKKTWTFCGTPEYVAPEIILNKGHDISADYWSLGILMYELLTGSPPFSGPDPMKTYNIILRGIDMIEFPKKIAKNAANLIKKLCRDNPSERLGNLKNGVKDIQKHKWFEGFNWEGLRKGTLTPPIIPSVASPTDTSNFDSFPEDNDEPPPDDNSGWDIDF
# Chain of MAP2K3 (P46734 whole entry): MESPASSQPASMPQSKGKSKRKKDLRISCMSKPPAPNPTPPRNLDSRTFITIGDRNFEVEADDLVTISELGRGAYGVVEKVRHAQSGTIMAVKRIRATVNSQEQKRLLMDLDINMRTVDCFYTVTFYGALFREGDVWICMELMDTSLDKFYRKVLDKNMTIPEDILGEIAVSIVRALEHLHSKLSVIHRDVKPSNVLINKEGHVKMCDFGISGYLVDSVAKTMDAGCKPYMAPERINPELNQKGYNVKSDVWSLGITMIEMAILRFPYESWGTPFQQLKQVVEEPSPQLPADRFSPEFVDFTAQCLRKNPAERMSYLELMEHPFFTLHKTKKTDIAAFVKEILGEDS
structure (smiles),measurement,setting,value
"CC(C)(C)c1nc2c3cc[nH]c(=O)c3c3cc(F)ccc3c2[nH]1 [JAKi-I, JAK inhibitor I]","caspase-3 activity, single agent",[1],neither JAKi-I nor ABT-263 alone induced caspase-3 activity
same,Ki,[2],> 5.24 µM
same,Ki,[3],> 3.24 µM
same,Ki,[4],0.148 µM
same,Ki,[5],> 3.63 µM
same,Ki,[6],2.11 µM
same,Ki,[7],> 3.1 µM
same,abundance of total Bim protein,"[8]; 1 μM JAKi-I, 6 hr, HEL and K562 lysates",not altered
same,Bim in Bcl-XL immunoprecipitates,"[8]; 1 μM JAKi-I, 6 hr, in the presence of the JAK2 V617F mutation",enriched
same,Ki,[9],> 1.55 µM
CC1(C)CCC(c2ccc(Cl)cc2)=C(CN2CCN(c3ccc(C(=O)NS(=O)(=O)c4ccc(N[C@H](CCN5CCOCC5)CSc5ccccc5)c(S(=O)(=O)C(F)(F)F)c4)cc3)CC2)C1 [ABT-263],"caspase-3 activity, combination","[1]; JAKi-I 6 hr pretreatment followed by ABT-263, within four hours, cell lines harboring JAK2 V617F",synergistic induction
same,"caspase-3 activity, single agent",[1],neither JAKi-I nor ABT-263 alone induced caspase-3 activity
same,Cell Viability (% Inhibiton),"[10]; K562, Unt., ABT-263 0.003 uM",0%
same,Cell Viability (% Inhibiton),"[10]; K562, Unt., ABT-263 0.01 uM",0%
same,Cell Viability (% Inhibiton),"[10]; K562, Unt., ABT-263 0.03 uM",0%
same,Cell Viability (% Inhibiton),"[10]; K562, Unt., ABT-263 0.1 uM",0%
same,Cell Viability (% Inhibiton),"[10]; K562, Unt., ABT-263 0.3 uM",0%
same,Cell Viability (% Inhibiton),"[10]; K562, Unt., ABT-263 1 uM",5%
same,Cell Viability (% Inhibiton),"[10]; K562, siMcl1-1, ABT-263 0.003 uM",0%
same,Cell Viability (% Inhibiton),"[10]; K562, siMcl1-1, ABT-263 0.01 uM",0%
same,Cell Viability (% Inhibiton),"[10]; K562, siMcl1-1, ABT-263 0.03 uM",0%
same,Cell Viability (% Inhibiton),"[10]; K562, siMcl1-1, ABT-263 0.1 uM",0%
same,Cell Viability (% Inhibiton),"[10]; K562, siMcl1-1, ABT-263 0.3 uM",0%
same,Cell Viability (% Inhibiton),"[10]; K562, siMcl1-1, ABT-263 1 uM",0%
same,Cell Viability (% Inhibiton),"[10]; K562, siMcl1-2, ABT-263 0.003 uM",0%
same,Cell Viability (% Inhibiton),"[10]; K562, siMcl1-2, ABT-263 0.01 uM",0%
same,Cell Viability (% Inhibiton),"[10]; K562, siMcl1-2, ABT-263 0.03 uM",0%
same,Cell Viability (% Inhibiton),"[10]; K562, siMcl1-2, ABT-263 0.1 uM",2%
same,Cell Viability (% Inhibiton),"[10]; K562, siMcl1-2, ABT-263 0.3 uM",11%
same,Cell Viability (% Inhibiton),"[10]; K562, siMcl1-2, ABT-263 1 uM",21%
same,Cell Viability (% Inhibiton),"[10]; K562, siMcl1-3, ABT-263 0.003 uM",0%
same,Cell Viability (% Inhibiton),"[10]; K562, siMcl1-3, ABT-263 0.01 uM",0%
same,Cell Viability (% Inhibiton),"[10]; K562, siMcl1-3, ABT-263 0.03 uM",0%
same,Cell Viability (% Inhibiton),"[10]; K562, siMcl1-3, ABT-263 0.1 uM",0%
same,Cell Viability (% Inhibiton),"[10]; K562, siMcl1-3, ABT-263 0.3 uM",13%
same,Cell Viability (% Inhibiton),"[10]; K562, siMcl1-3, ABT-263 1 uM",32%
same,Cell Viability (% Inhibiton),"[10]; K562, siMcl1-4, ABT-263 0.003 uM",0%
same,Cell Viability (% Inhibiton),"[10]; K562, siMcl1-4, ABT-263 0.01 uM",3%
same,Cell Viability (% Inhibiton),"[10]; K562, siMcl1-4, ABT-263 0.03 uM",22%
same,Cell Viability (% Inhibiton),"[10]; K562, siMcl1-4, ABT-263 0.1 uM",60%
same,Cell Viability (% Inhibiton),"[10]; K562, siMcl1-4, ABT-263 0.3 uM",75%
same,Cell Viability (% Inhibiton),"[10]; K562, siMcl1-4, ABT-263 1 uM",80%
same,Cell Viability (% Inhibiton),"[10]; K562, siNT-1, ABT-263 0.003 uM",0%
same,Cell Viability (% Inhibiton),"[10]; K562, siNT-1, ABT-263 0.01 uM",0%
same,Cell Viability (% Inhibiton),"[10]; K562, siNT-1, ABT-263 0.03 uM",0%
same,Cell Viability (% Inhibiton),"[10]; K562, siNT-1, ABT-263 0.1 uM",0%
same,Cell Viability (% Inhibiton),"[10]; K562, siNT-1, ABT-263 0.3 uM",2%
same,Cell Viability (% Inhibiton),"[10]; K562, siNT-1, ABT-263 1 uM",10%
same,Viability (% Inhibiton),[11]; ABT-263 0.003 uM,0%
same,Viability (% Inhibiton),[11]; ABT-263 0.01 uM,0%
same,Viability (% Inhibiton),[11]; ABT-263 0.03 uM,1%
same,Viability (% Inhibiton),[11]; ABT-263 0.1 uM,14%
same,Viability (% Inhibiton),[11]; ABT-263 0.3 uM,55%
same,Viability (% Inhibiton),[11]; ABT-263 1 uM,95%
same,drug-drug interaction (Bliss additivity),[12],Synergistic interactions
same,Bim binding to Bcl-XL,"[8]; 0.15 μM ABT-263, 3 hr, irrespective of JAK2 mutational status",displaced
